One assay has as its system HCT116 cells. Kind of assay: Screening of chemical libraries for IR-mediated cellular cannibalism (imaging flow cytometry, confocal validation). The following applies: for enhancement of IR-mediated cellular cannibalism: 8 Gy irradiated HCT116 cells, 10 μM compound, 24 h culture, dihydrochloride. In kind it is cell-based, human. Here is the method: FIG. 4 Identification of cannibalism modulators triggered by ionizing radiation. Compounds from the Prestwick (A) and CEA (F) libraries were tested for their capacities to induce cellular cannibalism after ionizing radiation. Cannibal cells were detected after homotypic cultures of 8 gray γ-irradiation HCT116 cells in the presence or absence of 10 μM of the Prestwick (A) and CEA […] library compounds. Each dot represents one compound. Representative images are shown in (B, G). (C, H) HCT116 cells were treated with the indicated drugs. After 24 h of treatment, cell death was monitored by staining with 3,3 dihexyloxacarbocyanine iodide (DiOC6(3)) and PI^+, and the percentage of dying (DiOC6(3)^low PI^−, open bars) and dead (DiOC6(3)^low PI^+, closed bars) cells was determined by cytofluorometry. Validation of the cannibalism inducers by fluorescent microscopy. Representative images (D, I) and quantification (E, J) are shown. Results are means s.e.m. of triplicate determinations.
Untreated HCT116 cells were labeled with CMFDA (green fluorescence, CMFDA^+) or CMTMR, (red fluorescence, CMTMR) and treated HCT116 cells with CMFDA (green fluorescence, CMFDA^+). The following cell mixtures were performed: untreated CMTMR^+ HCT116 cells were mixed with untreated CMFDA^+ HCT116 cells, or untreated CMTMR^+ HCT116 cells were mixed with treated CMFDA^+ HCT116 cells. Then, cells were co-cultured during 24 hours in the presence or absence of the pharmacological inhibitor of ROCK, Y27632 (30 μM), the pan-caspase inhibitor, Z-VAD-fmk (ZVAD, 100 μM), the inhibitor of caspase-1, Ac-YVAD-cmk (YVAD, 100 μM), the necroptosis inhibitor, Necrostatin-1 (NEC1, 30 μM), the inhibitor of the vacuolar type H(+)-ATPase (V-ATPase) inhibiting autophagy, Bafilomycin A1 (BafA1, 50 nM), the inhibitor of Cdks with an anti-mitotic activity, Roscovitine (Rosco, 10 μM). After 24 hours of co-culture, both detached and adherent cells were collected and stained with Hoechst […] (10 μg/mL) during 1 hour at 37° C. in warmed complete medium. To detect phosphatidylserine (PS) exposure and plasma membrane permeability, labeled HCT116 cells were successively incubated with Biotin-AnnexinV (BD Pharmingen) as recommended by manufacturer, […] BV786-Streptavidin (BD Biosciences) and 3 μM DRAQ7 (BioStatus) during 15 minutes at 25° C. After washing with PBS solution, samples were immediately analyzed using an imaging flow cytometer FlowSight® (Amnis®, part of EMD Millipore). Data were acquired at a 20× magnification, using INSPIRE software. The 405 nm, 488 nm, and 561 nm lasers were used for excitation. Brightfield, Annexin V-BV786, DRAQ7, CMFDA, CMTMR and Hoechst […] stainings were detected using respectively channels for 420-480 nm, 745-800 nm, 642-745 nm, 480-560 nm, 595-642 nm and 430-505 nm. At least 1000 events of cells per sample were analyzed. Additional single-labeled controls were prepared to normalize fluorescent signal across different channels. Acquired data were analyzed using the IDEAS analysis software (v6.1; Merck-Millipore). Gating strategy was the following. Cells were gated for focused cells using the Gradient RMS feature. Cells were gated for single cells using the aspect ratio and area features. For the cannibalism detection, cells were gated in the double positive CMFDA^+ and CMTMR^+ staining.
To detect PS exposure, plasma membrane permeability and cell cycle progression, cells were after co-culture sequentially labeled with specific fluorescent probes (such as FITC-conjugated AnnexinV, propidium iodide, and Hoechst 33342) and analyzed by flow cytometry. Both detached and adherent cells were collected and stained with Hoechst […] (10 μg/ml) during 1 hour at 37° C. in warmed complete medium. After washing with PBS, HCT116 cells were suspended in 1× binding buffer supplemented with fluorescein isothiocyanate (FITC)-conjugated Annexin V (BD Biosciences) and propidium iodide (PI, 1 μg/mL) (Sigma), as per manufacturer's instructions. […]
On the technique in general: In flow cytometry, cells or beads pass a laser one at a time.

The next assay concerns CT26 tumor cells. Kind of assay: Tumor growth in immunocompetent mice after intratumoral or intraperitoneal injection. In kind it is in vivo, mouse. Conditions: Balb/c mice. On the procedure: FIG. 7. Minaprine reduces tumor growth in immunocompetent mice after intratumoral or intraperitoneal injections. (A-C) 3 10^6 CT26 cells were implanted in immunocompetent BALB/c mice. Palpable tumors were injected with 10 μM Minaprine (or control) after 6 days. The tumor growth volume was then determined three times a week for the following 38 days (A and B). The percentage of mice survival was also determined (C). (D-I) 5 10^5 CT26 cells were implanted in immunocompetent BALB/c mice. After 12 days, tumor bearing mice were intraperitoneally injected with control (D and I), 0.3 mg/kg (E and I), 1 mg/kg (F and I), 3 mg/kg (G and I) or 10 mg/kg (H and I) of Minaprine. Tumor growth volumes (A-J) and fold change in the tumor volumes after intraperitoneal injection (D-I) were analyzed. Tumor growth volumes were the determined three times a week for the following 38 days.
For intratumoral injection, 3 10^6 Balb/c-derived CT26 tumor cells were subcutaneously implanted in 8 week-old Balb/c mice (Janvier Laboratories). After 6 days, 10 μM of Minaprine or control phosphate buffer saline (PBS) was injected into tumors (20 μl) and tumor volume was evaluated 3 times a week. For intraperitoneal injection, 5 10^5 Balb/c-derived CT26 tumor cells were subcutaneously implanted in 8 week-old Balb/c mice (Janvier Laboratories). After 12 days, tumor-bearing mice were intraperitonealy injected with different concentrations of Minaprine (0.3, 1, 3 and 10 mg/kg) or PBS. Tumor volume was also evaluated 3 times a week. The experiments were randomized, performed in compliance with the EU Directive 63/2010 and approved by Ethical Committee at Gustave Roussy Cancer Campus (CEEA IRCIV/IGR n^o26).
No statistical methods or criteria were used to estimate sample size or to include/exclude samples. The investigators were not blinded to group allocation during experiments and outcome assessment. Results are expressed as mean value SEM. To determine statistical significance, Two-way ANOVA (FIG. 7A) and Log rank (Mantel-Cox) (FIG. 7I) tests were used for calculation of P values. Prism 6 Software was used for the generation of survival graphs and statistical significance. Statistical significance was given as **p value<0.01 or *p value<0.05.
We first subcutaneously implanted 3 10^6 Balb/c-derived CT26 colon cancer cells in immunocompetent Balb/c mice. After 6 days, tumor-bearing mouse were randomized and 10 μM of Minaprine (3 mg/kg) was injected into tumors. Tumor growth was analyzed during 38 days.
We next determined whether intraperitoneal injections of Minaprine could also impact tumor growth. Thus, 5 10^5 Balb/c-derived CT26 cells were implanted into immunocompetent Balb/c mice. After 12 days, tumor-bearing mice were randomized, intraperitoneally injected with control (FIGS. 7D and 7I) or with Minaprine at different concentrations (FIGS. 7E-7I).

Consider `Cc1cc(-c2ccccc2)nnc1NCCN1CCOCC1.Cl.Cl` [Minaprine dihydrochloride], for which the “enhancement of IR-mediated cellular cannibalism” value is reported as “efficient cellular cannibalism enhancer” in the assay on HCT116 cells and “significantly increased in presence of ionizing radiation” in the assay with HCT116 cells (listed as Minaprine). In addition, the “induction of cellular cannibalism (Type IV cell death)” value in the assay with HCT116 cells (cancer cells treated with compound, without IR) is “favors the induction of Type IV cell death modality”. For the same compound, the tumor growth result in the assay on CT26 tumor cells (intraperitoneal injection 1 mg/kg 12 days after implant of 5 10^5 CT26 cells) was “significantly decreased the growth of treated tumors”; with CT26 tumor cells (intraperitoneal injection 3 mg/kg 12 days after implant of 5 10^5 CT26 cells), “significantly decreased the growth of treated tumors”; with CT26 tumor cells (intraperitoneal injection 10 mg/kg 12 days after implant of 5 10^5 CT26 cells), “significantly decreased the growth of treated tumors”; with CT26 tumor cells (intratumoral injection 3 mg/kg (10 μM) 6 days after implant of 3 10^6 CT26 cells, followed 38 days) it was “significantly decreases the growth of tumors”. Further, the “survival of treated mice” value in the assay on CT26 tumor cells (intratumoral injection 3 mg/kg, CT26 tumors, versus untreated control) is recorded as “increase survival”.

Source of the values: US11517575B2, “Use of minaprine to reduce tumor growth” (Institut Gustave-Roussy, priority 2019, dated 2022).
